Here are results for seven compounds from US11220494B2, “Cyclin dependent kinase inhibitors” (Pfizer Inc., priority 2018, dated 2022).

As usually defined, the Ki is a dissociation constant, usually derived from enzyme kinetics or from competition with a known ligand. A word on the IC50: it is the midpoint of a concentration-inhibition curve.

The target in one assay is CDK4/Cyclin D1 (Homo sapiens (Human), UniProt P11802). Description: CDK4/Cyclin D1 mobility shift assay. Conditions: activated CDK4/Cyclin D1, 3.5 mM ATP, fit to Morrison equation; read-out: CDK4D1 Ki. The format is biochemical. How it is done: Biological Assays and Data CDK4/Cyclin D1 Mobility Shift Assay
The purpose CDK4/Cyclin D1 assay is to evaluate the inhibition (% inhibition, Kiapp and Ki values) in the presence of small molecule inhibitors by using a fluorescence based microfluidic mobility shift assay. […] The mobility shift assay electrophoretically separates the fluorescently labeled peptides (substrate and phosphorylated product) following the kinase reaction. Both substrate and product are measured and the ratio of these values is used to generate % Conversion of substrate to product by the LabChip EZ Reader.
The reaction was stopped after 195 minutes by the addition of 50 μL of 30 mM EDTA. Ki determinations were made from a plot of the fractional velocity as a function of inhibitor concentration fit to the Morrison equation with the enzyme concentration as a variable.
For CDK4 and CDK6 mobility shift assays, see also Morrison, J. F. (1969) Kinetics of the reversible inhibition of enzyme-catalysed reactions by tight-binding inhibitors, Biochimica et biophysica acta 185, 269-286; and Murphy, D. J. (2004) Determination of accurate KI values for tight-binding enzyme inhibitors: an in silico study of experimental error and assay design, Analytical biochemistry 327, 61-67.

The target in a further assay is CDK6/Cyclin D3 (Homo sapiens (Human), UniProt Q00534). Kind of assay: CDK6/Cyclin D3 mobility shift assay. Conditions: activated CDK6/Cyclin D3, 3.5 mM ATP, fit to Morrison equation; read-out: CDK6_D3 Ki. Type of assay: biochemical. The method, then:
CDK6/Cyclin D3 Mobility Shift Assay
The purpose of the CDK6/Cyclin D3 assay is to evaluate the inhibition (% inhibition, Kiapp and Ki values) in the presence of small molecule inhibitors by using a fluorescence based microfluidic mobility shift assay. […] The mobility shift assay electrophoretically separates the fluorescently labeled peptides (substrate and phosphorylated product) following the kinase reaction. Both substrate and product are measured and the ratio of these values is used to generate % conversion of substrate to product by the LabChip EZ Reader.
The reaction was stopped after 95 minutes by the addition of 50 μL of 30 mM EDTA. Ki determinations were made from a plot of the fractional velocity as a function of inhibitor concentration fit to the Morrison equation with the enzyme concentration as a variable.

The target of another assay is CDK4 (Homo sapiens (Human), UniProt P11802). Kind of assay: Phospho-Serine 795 Rb ELISA assay in JEKO-1 cells. The format is cell-based. Conditions: treated overnight, phospho-Ser795 Rb, read-out: CDK4 pRB S795 ELISA JEKO-1 cells IC50. The method, then:
Phospho-Serine 795 Rb ELISA Assays
(§1) JEKO-1 or MV4-11 cells were seeded at 15,000 or 20,000 cells per well, respectively, in 100 μL growth media and allowed to incubate at 37° C. with 5% CO2 overnight. The following day, compounds were serially diluted from a 10 mM top dose for an 11-point 3-fold dilution curve in DMSO. Compounds were intermediately diluted 1:200 into growth media prior to diluting 1:5 on cells for final concentration 10 μM to 0.1 nM in 0.1% DMSO on cells. JEKO-1 and MV4-11 cells were treated were treated overnight, at 37° C. with 5% CO2. Cells were lysed in 100 μL/well CST lysis buffer on ice and transferred to pre-coated and blocked anti-phospho-Ser795 Rb ELISA plates for overnight incubation at 4° C. Plates were washed to remove residual, unbound cellular proteins and total Rb detection antibody added for 90 minutes at 37° C. Following wash to remove unbound total Rb antibody, the HRP tagged antibody was allowed to bind for 30 minutes at 37° C. Following wash to remove unbound HRP antibody, Glo Substrate Reagent was added and incubated protected from light for 5 to 10 minutes. Plates were read in luminescence mode and IC50 values calculated.
On the technique in general: An ELISA detects its analyte on a solid surface through an enzyme-linked reagent.

For the next assay, the target named is CDK6 (Homo sapiens (Human), UniProt Q00534). Kind of assay: Phospho-Serine 795 Rb ELISA assay in MV4-11 cells. The format is cell-based. Conditions: treated overnight, phospho-Ser795 Rb, read-out: CDK6 pRB S795 ELISA MV4-11 cells IC50. How it is done: as §1
Sequence of CDK6 (Q00534 whole entry): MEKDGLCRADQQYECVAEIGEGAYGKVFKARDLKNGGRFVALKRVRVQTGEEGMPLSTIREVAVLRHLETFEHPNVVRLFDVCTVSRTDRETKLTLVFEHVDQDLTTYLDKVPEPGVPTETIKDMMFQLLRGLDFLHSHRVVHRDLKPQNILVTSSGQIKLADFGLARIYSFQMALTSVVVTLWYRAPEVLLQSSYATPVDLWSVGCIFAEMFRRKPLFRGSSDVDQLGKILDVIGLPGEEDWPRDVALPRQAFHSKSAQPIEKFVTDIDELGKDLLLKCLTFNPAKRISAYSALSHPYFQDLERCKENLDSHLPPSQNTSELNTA
Sequence of CDK6 (P30281 whole entry partner): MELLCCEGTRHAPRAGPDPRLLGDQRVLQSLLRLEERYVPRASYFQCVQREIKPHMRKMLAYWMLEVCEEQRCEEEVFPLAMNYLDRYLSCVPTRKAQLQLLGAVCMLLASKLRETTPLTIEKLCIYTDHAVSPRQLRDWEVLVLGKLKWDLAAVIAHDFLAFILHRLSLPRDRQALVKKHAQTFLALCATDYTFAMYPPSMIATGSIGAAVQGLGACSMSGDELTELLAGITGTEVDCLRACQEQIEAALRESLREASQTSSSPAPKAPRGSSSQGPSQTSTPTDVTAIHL

Sequence of CDK6/Cyclin D3 (Q00534 whole entry): as the sequence (Q00534 whole entry) above
Sequence of CDK6/Cyclin D3 (P30281 whole entry partner): as the sequence (P30281 whole entry partner) above
Sequence of CDK4/Cyclin D1 (P11802 whole entry): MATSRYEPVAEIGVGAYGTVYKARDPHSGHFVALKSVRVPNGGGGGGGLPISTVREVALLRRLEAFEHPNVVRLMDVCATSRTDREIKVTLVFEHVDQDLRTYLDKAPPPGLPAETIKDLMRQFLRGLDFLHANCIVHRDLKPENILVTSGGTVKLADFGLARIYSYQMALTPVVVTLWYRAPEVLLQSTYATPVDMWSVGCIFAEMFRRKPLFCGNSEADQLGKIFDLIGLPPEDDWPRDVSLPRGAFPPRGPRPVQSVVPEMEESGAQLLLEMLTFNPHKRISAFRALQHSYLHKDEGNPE
Sequence of CDK4/Cyclin D1 (P24385 whole entry partner): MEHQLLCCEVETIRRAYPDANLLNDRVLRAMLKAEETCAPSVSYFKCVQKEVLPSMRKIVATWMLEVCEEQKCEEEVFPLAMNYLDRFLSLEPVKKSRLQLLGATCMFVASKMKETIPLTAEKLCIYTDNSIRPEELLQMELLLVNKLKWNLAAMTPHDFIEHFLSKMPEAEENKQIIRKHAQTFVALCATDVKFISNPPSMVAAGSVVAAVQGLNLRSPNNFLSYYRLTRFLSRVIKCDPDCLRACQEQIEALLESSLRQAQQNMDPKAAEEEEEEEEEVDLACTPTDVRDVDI
Sequence of CDK4 (P11802 2-303): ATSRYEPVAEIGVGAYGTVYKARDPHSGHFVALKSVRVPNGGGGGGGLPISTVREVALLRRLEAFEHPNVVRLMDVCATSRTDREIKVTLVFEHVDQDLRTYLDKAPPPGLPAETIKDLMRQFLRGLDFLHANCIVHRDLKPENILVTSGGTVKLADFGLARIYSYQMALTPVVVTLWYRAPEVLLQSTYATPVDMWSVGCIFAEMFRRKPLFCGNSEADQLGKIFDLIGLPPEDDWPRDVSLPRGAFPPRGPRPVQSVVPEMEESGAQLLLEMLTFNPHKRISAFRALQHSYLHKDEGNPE
Sequence of CDK4 (P24385 whole entry partner): as the sequence (P24385 whole entry partner) above

For the compound `CS(=O)(=O)N1CC[C@@H](Nc2ncc(Cl)c(-c3cc(F)c4ncn(C5CCOC5)c4c3)n2)[C@H](O)C1` (some centres unmarked) [Example A14], the Ki was 0.5 nM on CDK4/Cyclin D1 and 4.6 nM at CDK6/Cyclin D3.

On to `CS(=O)(=O)N1CC[C@@H](Nc2ncc(Cl)c(-c3cc(F)c4ncn(C5CC5)c4c3)n2)[C@H](O)C1` [Example A15], for which the inhibition constant Ki at CDK4/Cyclin D1 was determined as 0.3 nM; at CDK6/Cyclin D3, 2.4 nM.

Regarding `CC(C)n1cnc2c(Cl)cc(-c3nc(N[C@@H]4CCN(S(C)(=O)=O)C[C@H]4O)ncc3Cl)cc21` [Example A16], the Ki on CDK4/Cyclin D1 came to 0.2 nM; at CDK6/Cyclin D3, 2.7 nM. Besides, the 50% inhibitory concentration (IC50) on CDK4 amounted to 25.7 nM; at CDK6, 98.1 nM.

Turning to `CCC1COCc2nc3c(F)cc(-c4nc(N[C@@H]5CCN(S(C)(=O)=O)C[C@H]5O)ncc4F)cc3n21` (some centres unmarked) [Example A17], the Ki at CDK4/Cyclin D1 was 0.1 nM; at CDK6/Cyclin D3, 0.4 nM. Also, the values for the IC50 on CDK4 and at CDK6 were 9.9 nM and 13.4 nM, respectively.

As to `CC1(C)COCc2nc3c(F)cc(-c4nc(N[C@@H]5CCN(S(C)(=O)=O)C[C@H]5O)ncc4F)cc3n21` [Example A18], the inhibitory constant (Ki) was found to be 0.2 nM at CDK4/Cyclin D1 and 2.3 nM at CDK6/Cyclin D3. Further, the half-inhibitory concentration (IC50) on CDK4 turned out to be 25 nM; on CDK6 it was 77.2 nM.

In the case of `CC(C)c1c2cc(-c3nc(N[C@@H]4CCN(S(C)(=O)=O)C[C@H]4O)ncc3Cl)cc(F)c2nn1C` [Example A25], the inhibition constant (Ki) on CDK6/Cyclin D3 came to 1.3 nM. Also, the IC50 on CDK4 worked out at 13.3 nM; at CDK6, 30.6 nM.

As for `CC(C)n1c(C(C)(C)O)nc2c(F)cc(-c3nc(N[C@H]4CCOC[C@H]4O)ncc3Cl)cc21` [Example A35], the inhibition constant (Ki) on CDK4/Cyclin D1 amounted to 1.5 nM; on CDK6/Cyclin D3, 58.9 nM. Moreover, the figures for the 50% inhibitory concentration (IC50) at CDK4 and at CDK6 were 124 nM and 967 nM, respectively.
